Assay results taken from US12134785B2, “Differentiation of pluripotent stem cells to form renal organoids” (The University of Queensland, priority 2014, dated 2024).

Assays:
IM cells = assay: Preliminary data on differentiation of IM cells at different RA / AGN193109 concentrations; format: cell-based; conditions: higher concentrations of AGN193109
[1] = tested on: human iPSC line CRL1502 (clone#C32); assay: RA signaling control of A-P fate patterning of the IM (RA or AGN193109 with FGF9, monolayer differentiation, immunofluorescence); format: cell-based; conditions: day 18
Method: (§1) All experiments presented used the previously described wildtype human iPSC line CRL1502 (clone#C32) generated using episomal reprogramming^28. Undifferentiated human iPSCs were maintained on the mouse embryonic fibroblasts (MEFs) (Millipore) as a feeder layer with human ES cell (hES) medium as described previously^1. Cells were authenticated and tested for the mycoplasma infection^28. Human iPSCs were plated on a Matrigel-coated (Millipore) culture dish and cultured in MEF-conditioned hES medium (MEF-CM) until reaching to 60-100% confluent. Then, cells were again plated on a Matrigel-coated at 5,000 cells/cm^2 in MEF-CM. Next day, cells reached to 40-50% of confluent, cells were treated with 8 μM of CHIR99021 in APEL basal medium ([…] Technologies) supplemented with Antibiotic-Antimycotic (Life Technologies) for 2-5 days, followed by FGF9 (200 ng mL^−1) and Heparin (1 μg mL^−1) for another […], with changing medium every second day. At day 7, cells were collected and dissociated into single cells using Trypsin or TrypLE select (Life Technologies). Cells (0.5×10^6) were spun down at ×400 g for 2 min to form a pellet and then transferred onto a Transwell 0.4 μm pore polyester membrane (#CLS3450 Corning). Pellets were treated with 5 μM of CHIR99021 in APEL for 1 h, and then cultured with FGF9 (200 ng mL^−1) and Heparin (1 μg mL^−1) for 5 days, followed by another 6-13 days in APEL basal medium, with changing medium three times a week. Culture medium should not exceed above a membrane. For the differentiation in monolayer cultures, cells post CHIR99021 induction were treated by FGF9 (200 ng mL^−1) and Heparin (1 μg mL^−1) for 10 days, followed by APEL basal medium for another 6 days. In some experiments, RA (0.1 μM) or AGN193109 (5 μM) were added to FGF9 medium. A step-by step protocol describing kidney organoid generation was provided in Example 1.
For monolayer cells, antibody staining was performed as described previously^1. For the kidney organoid, organoids were fixed with 2% paraformaldehyde in PBS for 20 min at 4° C. followed by 3 times wash with PBS. […]

[2] = tested on: human iPSC line CRL1502 (clone#C32); assay: Duration of initial Wnt signaling (CHIR99021) prior to FGF9: AI/PI markers by qPCR and immunofluorescence; format: cell-based
Method: as §1
For monolayer cells, antibody staining was performed as described previously^1. For the kidney organoid, organoids were fixed with 2% paraformaldehyde in PBS for 20 min at 4° C. followed by 3 times wash with PBS. Then organoids were blocked with 10% donkey serum, 0.3% Triton X/PBS for 2-3 h at room temperature and incubated with primary antibodies overnight at 4° C. After 5 times washing with 0.1% Triton X/PBS. secondary antibodies were incubated for 4 h at room temperature. The following antibodies and dilutions were used: rabbit anti-PAX2 (1:300, #71-6,000, Zymed Laboratories), goat anti-SIX1 (1:300, #sc-9709, Santa Cruz Biotechnology), rabbit anti-SIX2 (1:300, #11562-1-AP, Proteintech), mouse anti-ECAD (1:300, #610181. BD Biosciences), rabbit anti-WT1 (1:100, #sc-192, Santa Cruz Biotechnology), mouse anti-HOXD11 (1:300, #SAB1403944, Sigma-Aldrich), goat anti-GATA3 (1:300, AF2605, R&D Systems). rabbit anti-JAG1 (1:300, #ab7771, Abcam), goat anti-Cubilin (1:150, #sc-20607. Santa Cruz Biotechnology), sheep anti-NPHS1 (1:300, AF4269, R&D Systems), LTL-biotin-conjugated (1:300, B-1325, Vector Laboratories), DBA-biotin-conjugated (1:300, B-1035, Vector Laboratories), mouse anti-KRT8 (1:300, #TROMA, DSHB), mouse anti-CD31 (1:300, #555444, BD Pharmingen), rabbit anti-KDR (1:300, #2479, Cell Signaling Technology), goat anti-SOX17 (1:300, #AF1924, R&D Systems), rabbit anti-NG2 (1:300, #AB5320, Merck Millipore), rabbit anti-SMA (1:300, #ab15267. Abcam), mouse anti-PDGFRA (1:200, #556001. BD Pharmingen), rabbit anti-Laminin (1:300, #L9393, Sigma-Aldrich), rabbit anti-UMOD (1:300, #BT-590, Biomedical Technologies), mouse anti-MEIS1 (1:300, #ATM39795, activemotif), goat anti-FOXD1 (1:200, #sc-47585, Santa Cruz Biotechnology) and rabbit anti-cleaved-CASP3 (1:300, #9661, Cell Signaling Technology). Images were taken using a Nikon Ti-U microscope or a Zeiss LSM 780 confocal microscope. All immunofluorescence analyses were successfully repeated more than three times and representative images are shown. […]

kidney organoids = assay: Regulation of nephrogenesis in the kidney organoid (CHIR99021 pulse, FGF9); format: cell-based, human
Method: as §1, with “Pellets were treated with 5 μM of CHIR99021 in APEL for 1 h, and then cultured with FGF9 (200 ng mL^−1) and Heparin (1 μg mL^−1) for 5 days, followed by another 6-13 days in APEL basal medium, with changing medium three times a week.” left out

[3] = longer duration of CHIR99021, day 7
[4] = shorter duration of CHIR99021, day 7

## Cc1ccc(C2=CCC(C)(C)c3ccc(C#Cc4ccc(C(=O)O)cc4)cc32)cc1 [AGN193109]
IM cells
  proportion of metanephric mesenchyme cells: relative increase
[1]; 3 days CHIR99021 followed by FGF9 + AGN
  AI specification of early migrating cells: inhibited
[1]; AGN193109 (5 μM) with FGF9 after CHIR99021, monolayer
  induction of the MM lineage: enhanced
[1]; RA (0.1 μM) or AGN193109 (5 μM) with FGF9 after CHIR99021, monolayer
  UE induction (GATA3+PAX2+ECAD+): inhibited

## Cc1c[nH]c(-c2cnc(NCCNc3ccc(C#N)cn3)nc2-c2ccc(Cl)cc2Cl)n1 [CHIR99021]
[2]; fewer days in CHIR, after 18 days of culture
  UE induction (GATA3+PAX2+ECAD+): dominant UE induction
[2]; initial 4 days of CHIR99021
  induction of UE and MM in monolayer culture: induction of both the UE and MM
[2]; longer days in CHIR99021
  expression of the PSM markers TBX6 and T (qPCR): Prolonged expression
[2]; longer days in CHIR, after 18 days of culture
  induction of MM (PAX2+ECAD−) and its derivatives (PAX2+ECAD+): preferential induction of MM
[2]; longer days of 8 μM CHIR99021, day 7
  PI markers HOXD11 and EYA1 (qPCR): increased
[2]; [3]
  AI (GATA3) by immunofluorescence: less
  PI (HOXD11) by immunofluorescence: more
[2]; [4]
  AI (GATA3) by immunofluorescence: more
  PI (HOXD11) by immunofluorescence: less
[2]; shorter period of 8 μM CHIR99021, day 7
  AI markers LHX1 and GATA3 (qPCR): induced
Kidney organoids; 5 μM CHIR99021 for 1 h immediately post aggregation vs no pulse
  nephrogenesis in organoids: promoted nephrogenesis
Kidney organoids; 45 minute pulse of high CHIR (5 μM) immediately upon reaggregation
  formation of aggregates: enhanced
Kidney organoids; pulse of CHIR99021 for one hour after forming a pellet
  maximal nephron number per organoid: required
